Earlier results on 43 compounds are cited in patent US20110014255A1, “PHYTOSANITARY FORMULATION GENERATING NANOPARTICLES, METHOD FOR PREPARING NANOPARTICLES AND USE THEREOF” (priority 2006, published 2011).

“And” between values parts separate entries of the source, which are not always exact repeats. Identical values can stand only once. Counter-ions that a name gives are not always drawn.

For one data set the following is noted: % by weight.
As to `CCCOC(C)=O` [propyl acetate], the miscibility in water is 2.3%.
In the case of `CCCC(O)C(CC)CO` (centres unmarked) [2-ethyl-1,3-hexanediol], the miscibility in water is 0.6%.
Take `CC(=O)OCC(C)C` [isobutyl acetate]: the miscibility in water is 0.67%.
As to `O=C(OCc1ccccc1)c1ccccc1O` [benzyl salicylate], the miscibility in water is given as 0.005%.
As for `CCOC(=O)c1ccccc1C(=O)OCC` [diethyl phthalate], the miscibility in water is on record as 0.1%.
`CCCCC(CC)COP(=O)(OCC(CC)CCCC)OCC(CC)CCCC` (centres unmarked) [tris(2-ethylhexyl)phosphate]: the miscibility in water was 0.1%.
On to `CCCCCCCCN1CCCC1=O` [N-octylpyrrolidone], for which the miscibility in water was 0.1%.
Turning to `CC(Cl)Cl` [1,1-dichloroethane], the miscibility in water was 5.03%.
In the case of `C=CC#N` [acrylonitrile], the miscibility in water is reported as 7.35%.
As for `CC(=O)c1ccccc1` [acetophenone], the miscibility in water was 0.55%.
On to `CCOC(C)=O` [ethyl acetate], for which the miscibility in water is given as 8%.
As to `COCOC` [dimethoxymethane], the miscibility in water was 2.4%.
As to `CCC(CC)CO` [2-ethylbutanol], the miscibility in water is reported as 0.63%.
For `c1ccc2ncccc2c1` [quinoline], the miscibility in water is listed as 0.61%.
As for `N#Cc1ccccc1` [benzonitrile], the miscibility in water was 0.2%.
Turning to `COC(=O)CCCCC(=O)OC` [dimethyl adipate], the miscibility in water is listed as 2.5%.
For `CC1=CC(=O)CC(C)(C)C1` [isophorone], the miscibility in water is 1.2%.
Take `OCc1ccccc1` [benzyl alcohol]: the miscibility in water was 0.08%.
As for `CCCCCCCC(=O)N(C)C` [N,N-dimethyloctanamide], the miscibility in water is on record as 0.43%.
For the compound `CCCCOC(C)=O` [butyl acetate], the miscibility in water was 2.9%.
As for `COc1ccccc1` [anisole], the miscibility in water is listed as 1.04%.
As to `O=C1CCCCC1` [cyclohexanone], the miscibility in water was 2.4% and 2.3%.
`CC(=O)OCCC(C)C` [isoamyl acetate]: the miscibility in water was 2%.
Regarding `CC(=O)CC(C)C` [methyl isobutyl ketone], the miscibility in water is reported as 1.7%.
Turning to `COC(=O)c1ccccc1C(=O)OC` [dimethyl phthalate], the miscibility in water is given as 1.84%.
Take `COC(=O)C(=O)OC` [dimethyl oxalate]: the miscibility in water is given as 5%.
Take `CCCCOCCOP(=O)(OCCOCCCC)OCCOCCCC` [tributoxyethyl phosphate]: the miscibility in water is 0.11%.
As to `CCCCOC(=O)[C@H](C)O` [(S)-n-butyl lactate], the miscibility in water was 4.5%.
On to `CCCC#N` [butyronitrile], for which the miscibility in water was 3.3%.
On to `ClCCl` [dichloro-methane], for which the miscibility in water was 1.3%.
In the case of `CC(=O)OC(C)C` [isopropyl acetate], the miscibility in water is listed as 2.9%.
Regarding `COC(=O)c1ccccc1O` [methyl salicylate], the miscibility in water was 0.074% and 0.07%.
For the compound `CCCCCOC(C)=O` [N-pentyl acetate], the miscibility in water is on record as 1%.
Turning to `CCCCCCCCCCO` [decanol], the miscibility in water is reported as 0.02%.
Take `CCCCC(CC)CO` (centres unmarked) [2-ethylhexanol]: the miscibility in water is 0.07%.
Take `CC(C)COC(=O)C(C)C` [isobutyl isobutyrate]: the miscibility in water is listed as 0.5%.
As to `CCCCCC(C)O` (centres unmarked) [Example 2-heptanol, 2-heptanol], the miscibility in water is 0.35%.
Turning to `c1ccc(Oc2ccccc2)cc1` [diphenyl ether], the miscibility in water was 0.002%.
As to `CCCCOCCOCCO` [diethylene glycol n-butyl ether], the miscibility in water was 6.5%.
With `CC(=O)OCc1ccccc1` [benzyl acetate], the miscibility in water is 0.001%.
As to `ClCC1CO1` (centres unmarked) [epichlorohydrin], the miscibility in water is on record as 6.58%.
`O=Cc1ccco1` [furfuraldehyde]: the miscibility in water is given as 8.3%.
Take `CCCC=O` [butyraldehyde]: the miscibility in water is listed as 7.1%.

The data set is the same for the next values; noted with them: % by weight; listed as octyl pyrrolidone.
In the case of `CCCCCCCCN1CCCC1=O` [N-octylpyrrolidone], the miscibility in water entry is given as “not more than 0.1%”.
